# Assay: Solubility of TA in a solvent containing 50% benzoic acid and 50% water at various temperatures
# Format: physicochemical
# Details: solvent 50% benzoic acid and 50% water
# Method: The solubility of TA in a solvent containing 50% benzoic acid and 50% water was determined at various temperatures and is shown below in Table 1.
smiles,measurement,setting,value
"O=C(O)c1ccc(C(=O)O)cc1 [TA, terephthalic acid]",solubility of TA given in Example 1,at 455 °F,10.9%
same,TA Solubility,Temp 397 °F,5.04 g TA/100 g Solution
same,TA Solubility,Temp 436 °F,8.58 g TA/100 g Solution
same,TA Solubility,Temp 446 °F,9.59 g TA/100 g Solution
same,TA Solubility,Temp 451 °F,9.77 g TA/100 g Solution
same,TA Solubility,Temp 455 °F,10.91 g TA/100 g Solution
same,TA Solubility,Temp 477 °F,13.49 g TA/100 g Solution
same,TA Solubility,Temp 505 °F,18.71 g TA/100 g Solution
